Columns and labels:
Wee1 protein = target: T1, Wee1 protein (Homo sapiens, UniProt P30291); assay: Binding of compound to Wee1 protein and Tracer 178 by TR-FRET (Wee1 kinase inhibitory activity); settings: 15 nM WEE1, 50 nM Tracer 178, read-out: IC50 (inhibitory activity against Wee1 kinase)
T1 construct: purchased Thermo Fisher PR7373A
Method: First, solutions of the compounds in different concentration gradients were prepared. The compounds were dissolved in DMSO and the compounds were diluted 4 folds with a total of 10 dose points and 2 parallel replicates for each concentration.
The IC50 for inhibition of enzyme activity by the compounds was then calculated using GraphPad Prism 6 and fitted with a log (inhibitor) vs. response-Variable slope mode. The fitting equation was: Y=Bottom+(Top−Bottom)/(1+10^((Log IC50−X)*HillSlope)), wherein Y represents the percentage of residual enzyme activity known and X represents the known concentration of compound after the logarithm.

H1299 cells = assay: Anti-proliferative effect on H1299 cells by Cell Titer-Glo; assay type: cell-based; settings: Homo sapiens, NCI-H1299, 72 h, 3 days, read-out: H1299 (IC50, inhibition of proliferation in vitro)
Method: (§1) Test Example 2: Evaluation of Cell Proliferation Inhibitory Activity
1. Evaluation of the Anti-Proliferative Effect of Compounds on H1299 Cells by the Cell Titer-Glo Method
(§2) Compound solutions of different concentration gradients were prepared. […] The cell growth group without compound was used as a positive control (maximum signal control) and the medium was used as a negative control (minimum signal control), while ensuring that the final level of DMSO in each reaction well was 0.2%. After removing the medium from the 384-well plate, 25 ul of the configured compound at different concentrations was transferred into the well plate and the compound and cells were incubated in the cell incubator at 37° C. with 5% CO2 for 3 days.
(§3) The 384-well plates were removed from the cell incubator and allowed to equilibrate for 1h to room temperature. 25 ul of Cell Titer-Glo assay was added to each well, lysed on a shaker for 2 min and then read out (Luminescence) using a BMG PHERAStar after 10 min incubation. Calculate the inhibition rate from the luminescence signal: first calculate the average of the positive control (maximum signal control) and the negative control (minimum signal control).
(§4) was used to calculate the rate of inhibition of the cells by different concentrations of the compounds. The IC50 of the compound on cell activity inhibition was calculated by fitting a log(inhibitor) vs. response-Variable slope model to GraphPad Prism 6. The fitted equation was: Y=Bottom+(Top−Bottom)/(1+10^((Log IC50−X)*HillSlope)), where Y represents the rate of inhibition and X represents the concentration of the known compound after Log.
(§5) The results of the in vitro anti-cell proliferation assays of H1299 and MIA Paca-2 for the example compounds according to the method described above are shown in Table 2, wherein the IC50 of each compound was determined and classified according to the description as follows: […]

MIA PaCa2 cells = assay: Anti-proliferative effect on MIA PaCa2 cells by Cell Titer-Glo; assay type: cell-based; settings: Homo sapiens, MIA PaCa-2, 72 h, 3 days, read-out: MIA PaCa 2 (IC50, inhibition of proliferation in vitro)
Method: as §1
2. Evaluation of the Anti-Proliferative Effect of Compounds on MIA PaCa2 Cells by the Cell Titer-Glo Method
as §2
as §3, with “1 h” for “1h”
as §4, with “Y=Bottom+(Top-Bottom)/(1+10^((Log” for “Y=Bottom+(Top−Bottom)/(1+10^((Log”, “wherein” for “where”
as §5

T1 sequence (P30291 whole entry): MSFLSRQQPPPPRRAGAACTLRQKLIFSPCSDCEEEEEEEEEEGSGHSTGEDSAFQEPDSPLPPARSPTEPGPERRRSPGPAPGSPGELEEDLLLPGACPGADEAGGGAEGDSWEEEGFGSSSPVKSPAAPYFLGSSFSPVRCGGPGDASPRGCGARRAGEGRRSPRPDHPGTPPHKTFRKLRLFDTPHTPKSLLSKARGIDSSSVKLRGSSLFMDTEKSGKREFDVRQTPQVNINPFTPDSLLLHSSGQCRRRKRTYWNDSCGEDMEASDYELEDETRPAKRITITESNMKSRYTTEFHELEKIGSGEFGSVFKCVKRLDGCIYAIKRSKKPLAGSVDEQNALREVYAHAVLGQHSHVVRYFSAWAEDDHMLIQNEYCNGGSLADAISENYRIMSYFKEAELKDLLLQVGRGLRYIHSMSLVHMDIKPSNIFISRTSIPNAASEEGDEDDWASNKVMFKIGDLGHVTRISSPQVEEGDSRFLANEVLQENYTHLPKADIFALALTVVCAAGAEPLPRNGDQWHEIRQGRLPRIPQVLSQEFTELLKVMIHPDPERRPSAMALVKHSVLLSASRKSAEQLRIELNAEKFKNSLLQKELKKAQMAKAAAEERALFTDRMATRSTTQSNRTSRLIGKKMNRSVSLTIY

| SMILES | IC50 (Wee1 protein) [nM] | IC50 (H1299 cells) [nM] | IC50 (MIA PaCa2 cells) [nM] |
| --- | --- | --- | --- |
| C=CCn1c(=O)c2cnc(Nc3ccc(N4CCN(C)CC4)cc3)nc2n1-c1cccc(C2(S(C)(=O)=O)CC2)n1 [Compound 1] | 5 to 10 | 2000 to 5000 | – |
| C=CCN1C2CC1CN(c1ccc(Nc3ncc4c(=O)n(CC=C)n(-c5cccc(C(C)(C)O)n5)c4n3)cc1)C2 [Compound 64] | 10 to 100 | 100 to 1000 | 100 to 1000 |
| C=CCn1c(=O)c2cnc(Nc3ccc(N4CCN(C)CC4)cc3)nc2n1-c1ccc2c(n1)N(CC)C(=O)C2(C)C [Compound 71] | 10 to 100 | 2000 to 5000 | – |
| C=CCn1c(=O)c2cnc(Nc3cnn(-c4ccc(N(C)C)cc4)c3)nc2n1-c1cccc(C(C)(C)O)n1 [Compound 45] | 10 to 100 | > 10000 | 5000 to 10000 |
| C=CCn1c(=O)c2cnc(Nc3ccc(N4C[C@@H]5C[C@H]4CN5CC(F)(F)F)cc3)nc2n1-c1cccc(C(C)(C)O)n1 [Compound 30] | < 5 | 1000 to 2000 | 1000 to 2000 |
| C=CCn1c(=O)c2cnc(Nc3ccc(N4CCN(C)c5ccccc54)cc3)nc2n1-c1cccc(C(C)(C)O)n1 [Compound 50] | 100 to 1000 | 5000 to 10000 | > 10000 |
| C=CCn1c(=O)c2cnc(Nc3ccc(N4CC5CC(C4)N5CCO)cc3)nc2n1-c1cccc(C(C)(C)O)n1 [Compound 66] | 5 to 10 | 100 to 1000 | 100 to 1000 |
| C=CCn1c(=O)c2cnc(Nc3ccc(N(CC)CC(=O)N4CCN(C)CC4)cc3)nc2n1-c1cccc(C(C)(C)O)n1 [Compound 14] | 5 to 10 | 5000 to 10000 | 2000 to 5000 |
| C=CCn1c(=O)c2cnc(Nc3ccc(-n4cc(N(C)C)cn4)cc3)nc2n1-c1cccc(C(C)(C)O)n1 [Compound 36] | 10 to 100 | 1000 to 2000 | 1000 to 2000 |
| C=CCn1c(=O)c2cnc(Nc3ccc([C@H]4C[C@@]45C(=O)C4CCN5CC4)cc3)nc2n1-c1cccc(N=S(C)(C)=O)n1 [Compound 47a] | 10 to 100 | 100 to 1000 | 1000 to 2000 |
| C=CCn1c(=O)c2cnc(Nc3ccc(OC4CN5CCC4CC5)cc3)nc2n1-c1cccc(N=S(C)(C)=O)n1 (centres unmarked) [Compound 7] | < 5 | 100 to 1000 | – |
| C=CCn1c(=O)c2cnc(Nc3ccc(N4CC5CCC(C4)O5)cc3)nc2n1-c1cccc(C(C)(C)O)n1 [Compound 17] | 5 to 10 | 100 to 1000 | 1000 to 2000 |
| C=CCn1c(=O)c2cnc(Nc3ccc(N4CCN(C)CC4)cc3)nc2n1-c1ccc2nc(C)n(CC)c2n1 [Compound 75] | 10 to 100 | 1000 to 2000 | – |
| C=CCn1c(=O)c2cnc(Nc3ccc(N4CC5CC(C4)N5C(=O)OC)cc3)nc2n1-c1cccc(C(C)(C)O)n1 [Compound 69] | 10 to 100 | 100 to 1000 | – |
| C=CCn1c(=O)c2cnc(Nc3ccc(N(C)[C@H]4CN5CCC4CC5)cc3)nc2n1-c1cccc(C(C)(C)O)n1 [Compound 29] | 5 to 10 | > 10000 | > 10000 |
| C=CCn1c(=O)c2cnc(Nc3ccc(N4C[C@@H]5C[C@H]4CN5CCF)cc3)nc2n1-c1cccc(C(C)(C)O)n1 [Compound 44] | 5 to 10 | 100 to 1000 | 100 to 1000 |
| C=CCn1c(=O)c2cnc(Nc3ccc(N4CC5CC(CN(CCOC)C5)C4)cc3)nc2n1-c1cccc(C(C)(C)O)n1 [Compound 34] | 10 to 100 | 5000 to 10000 | 2000 to 5000 |
| C=CCn1c(=O)c2cnc(Nc3ccc(N4CC5CC(C4)N5C4CN(C)C4)cc3)nc2n1-c1cccc(C(C)(C)O)n1 [Compound 63] | 1000 to 10000 | > 10000 | > 10000 |
| C=CCn1c(=O)c2cnc(Nc3ccc(N4CC5CC(C4)N5C)cc3)nc2n1-c1cccc(C(C)(C)OC)n1 [Compound 60] | 5 to 10 | 100 to 1000 | 100 to 1000 |

| SMILES | IC50 (Wee1 protein) [nM] | IC50 (H1299 cells) [nM] | IC50 (MIA PaCa2 cells) [nM] |
| --- | --- | --- | --- |
| C=CCn1c(=O)c2cnc(Nc3ccc(N4C[C@@H]5C[C@H]4CN5CCO)cc3)nc2n1-c1cccc(C(C)(C)O)n1 [Compound 38] | 10 to 100 | 2000 to 5000 | 100 to 1000 |
| C=CCn1c(=O)c2cnc(Nc3ccc(N4C[C@@H]5C[C@H]4CN5C(C)C)cc3)nc2n1-c1cccc(C(C)(C)O)n1 [Compound 41] | 10 to 100 | 100 to 1000 | 100 to 1000 |
| C=CCn1c(=O)c2cnc(Nc3ccc(-n4cc(N5CCCC5)cn4)cc3)nc2n1-c1cccc(C(C)(C)O)n1 [Compound 55] | 10 to 100 | 1000 to 2000 | 1000 to 2000 |
| C=CCn1c(=O)c2cnc(Nc3cc(F)c(N4CC5CC(C4)N5C)c(F)c3)nc2n1-c1cccc(C(C)(C)O)n1 [Compound 79] | 10 to 100 | > 10000 | – |
| C=CCn1c(=O)c2cnc(Nc3ccc(C4(O)CCN(C)CC4)cc3)nc2n1-c1cccc(C(C)(C)O)n1 [Compound 35] | 10 to 100 | 2000 to 5000 | 1000 to 2000 |
| C=CCn1c(=O)c2cnc(Nc3ccc(N(CC)CC(=O)NC)cc3)nc2n1-c1cccc(C(C)(C)O)n1 [Compound 13] | 5 to 10 | 5000 to 10000 | 5000 to 10000 |
| C=CCn1c(=O)c2cnc(Nc3ccc(N4CCOc5ccccc54)cc3)nc2n1-c1cccc(C(C)(C)O)n1 [Compound 31] | 10 to 100 | 5000 to 10000 | 5000 to 10000 |
| C=CCn1c(=O)c2cnc(Nc3ccc(C4CCN(C)CC4)cc3)nc2n1-c1ccc2ccn(CC)c2n1 [Compound 77] | 5 to 10 | 1000 to 2000 | 1000 to 2000 |
| C=CCn1c(=O)c2cnc(Nc3ccc(N4CC5CC(C4)N5CC)cc3)nc2n1-c1cccc(C(C)(C)O)n1 [Compound 65] | 5 to 10 | 100 to 1000 | 100 to 1000 |
| C=CCn1c(=O)c2cnc(Nc3ccc(N4CC5CC(C4)N5C(C)=O)cc3)nc2n1-c1cccc(C(C)(C)O)n1 [Compound 68] | 10 to 100 | 1000 to 2000 | 100 to 1000 |
| C=CCn1c(=O)c2cnc(Nc3ccc(N4C[C@@H]5C[C@H]4CN5C)cc3)nc2n1-c1ccc2ccn(CC)c2n1 [Compound 76] | 10 to 100 | 100 to 1000 | 1000 to 2000 |
| C=CCn1c(=O)c2cnc(Nc3ccc(N4CCN(C)CC4)cc3)nc2n1-c1cc2ccccc2s1 [Compound 72] | 10 to 100 | 5000 to 10000 | – |
| C=CCn1c(=O)c2cnc(Nc3ccc(N4CCN(C)CC4)cc3)nc2n1-c1ccc2c(n1)OC(C)(C)CO2 [Compound 74] | 10 to 100 | > 10000 | > 10000 |
| C=CCn1c(=O)c2cnc(Nc3ccc(N4CC5CC(CN(Cc6ccccc6)C5)C4)cc3)nc2n1-c1cccc(C(C)(C)O)n1 [Compound 22] | 10 to 100 | 100 to 1000 | 1000 to 2000 |
| C=CCn1c(=O)c2cnc(Nc3ccc(N4[C@@H]5C[C@H]4CN(C)C5)cc3)nc2n1-c1cccc(C(C)(C)O)n1 [Compound 43] | 10 to 100 | 2000 to 5000 | 2000 to 5000 |
| C=CCn1c(=O)c2cnc(Nc3ccc(N4CCN(C)CC4)cc3)nc2n1-c1ccc2c(C(C)=O)cn(CC)c2n1 [Compound 70] | 5 to 10 | 100 to 1000 | – |
| C=CCn1c(=O)c2cnc(Nc3ccc(N4C[C@@H]5C[C@H]4CN5C)cc3)nc2n1-c1cccc(N=S(C)(C)=O)n1 [Compound 5] | < 5 | 100 to 1000 | – |
| C=CCn1c(=O)c2cnc(Nc3ccc(N4CCN(C)CC4)cc3)nc2n1-c1ccc2c(F)cn(CC)c2n1 [Compound 73] | 10 to 100 | 1000 to 2000 | – |

Source: patent US20250034151A1, “WEE1 INHIBITOR, PREPARATION THEREFOR, AND USE THEREOF” (JIANGSU TASLY DIYI PHARMACEUTICAL CO., LTD., priority 2022, published 2025)
